Reference: PubChem BioAssay AID280 (DTP/NCI, 2004)
Several values for one entry are separate records, joined by “and”; a condition that tells them apart may be missing. Equal values may be shown once. Toxic doses and inconclusive results are not listed. Starred links: 1 amine or outer side, 2 acyl side, 3 side chain; linkers in the order of their positions; H or OH if unused. Positions of bridges follow the written chain, without caps; N, C: chain ends. Non-standard residues stand in square brackets, D forms with d. Residues, ends and D or L forms follow the SMILES beside them. Chains are numbered I, II in the order given. Actinocin(9to1) = Cc1c2oc3c(C)ccc(C(=O)[*:1])c3nc-2c(C(=O)[*:2])c(N)c1=O; aThr = C[C@H](O)[C@H](N)C(=O)O; NMeV = CN[C@H](C(=O)O)C(C)C; Sar = CNCC(=O)O

Tested on: nude mice, LOX melanoma ip, survival T/C
Assay: NCI In Vivo Anticancer Drug Screen. Data for tumor model Human Amelanotic Melanoma (LOX) (intraperitoneal) in NU/NU BALB/C (nude) mice
Details: endpoint: median survival time, higher = longer survival
Procedure: The antitumor activity of compounds was measured in mice bearing transplantable tumors. Survival or tumor size were measured and the results are expressed as the measurement made in the treated group (T) divided by the measurement made in the vehicle treated control group (C). The tumor model used in this assay is Human Amelanotic Melanoma (LOX) (intraperitoneal) in NU/NU BALB/C (nude) mice

[1] = dose: 75.0 mg/kg/injection, schedule: Q04DX003 (ip), vehicle: saline with Tween-80
[2] = dose: 300.0 mg/kg/injection, schedule: Q04DX003 (ip), vehicle: saline with Tween-80
[3] = dose: 6.25 mg/kg/injection, schedule: Q04DX003 (ip), vehicle: saline with Tween-80
[4] = dose: 100.0 mg/kg/injection, schedule: Q04DX003 (ip), vehicle: saline with Tween-80
[5] = dose: 30.0 mg/kg/injection, schedule: Q04DX003 (ip), vehicle: Klucel (hydroxypropylcellulose) (HPC)
[6] = dose: 120.0 mg/kg/injection, schedule: Q04DX003 (ip), vehicle: Klucel (hydroxypropylcellulose) (HPC)

For Cc1c2oc3c(C)ccc(C(=O)N[C@@H]4C(=O)N[C@H](C(C)C)C(=O)N5CCC[C@H]5C(=O)N(C)CC(=O)N(C)[C@@H](C(C)C)C(=O)O[C@H]4C)c3nc-2c(C(=O)N[C@@H]2C(=O)N[C@H](C(C)C)C(=O)N3CCC[C@H]3C(=O)N(C)CC(=O)N(C)[C@@H](C(C)C)C(=O)O[C@H]2C)c(N)c1=O (I: [aThr][dV]P[Sar][NMeV] / II: [aThr][dV]P[Sar][NMeV]; ester I:1-I:C, II:1-II:C; linker I:N-II:N via Actinocin(9to1)), the T/C (dose: 0.07 mg/kg/injection, schedule: Q04DX003 (ip), vehicle: saline) was 185 % of control, the T/C (dose: 0.13 mg/kg/injection, schedule: Q01DX001 (ip), vehicle: saline) was 151 % of control and the T/C (dose: 0.13 mg/kg/injection, schedule: Q04DX003 (ip), vehicle: saline) was 269 % of control. The T/C (dose: 0.25 mg/kg/injection, schedule: Q01DX001 (ip), vehicle: saline) was 153 % of control, the T/C (dose: 0.25 mg/kg/injection, schedule: Q04DX003 (ip), vehicle: saline) was 337 % of control and the T/C (dose: 0.5 mg/kg/injection, schedule: Q01DX001 (ip), vehicle: saline) was 264 % of control. For the same compound, the T/C (dose: 0.5 mg/kg/injection, schedule: Q04DX003 (ip), vehicle: saline) was 337 % of control, the T/C (dose: 1.0 mg/kg/injection, schedule: Q01DX001 (ip), vehicle: saline) was 337 % of control and the T/C (dose: 1.3 mg/kg/injection, schedule: Q04DX003 (ip), vehicle: saline) was 87 % of control. The T/C (dose: 0.13 micrograms/kg/injection, schedule: Q01DX005 (ip), vehicle: saline) was 162 % of control, the T/C (dose: 0.13 micrograms/kg/injection, schedule: Q01DX015 (ip), vehicle: saline) was 207 % of control and the T/C (dose: 25.0 micrograms/kg/injection, schedule: Q01DX005 (ip), vehicle: saline) was 191 % of control. For the same compound, the T/C (dose: 25.0 micrograms/kg/injection, schedule: Q01DX015 (ip), vehicle: saline) was 337 % of control, the T/C (dose: 50.0 micrograms/kg/injection, schedule: Q01DX005 (ip), vehicle: saline) was 337 % of control and the T/C (dose: 50.0 micrograms/kg/injection, schedule: Q01DX015 (ip), vehicle: saline) was 337 % of control. The T/C (dose: 100.0 micrograms/kg/injection, schedule: Q01DX005 (ip), vehicle: saline) was 337 % of control and the T/C (dose: 100.0 micrograms/kg/injection, schedule: Q01DX015 (ip), vehicle: saline) was 337 % of control.
With O=C(Nc1cc(Cl)ccc1C(=O)O)c1cccc(C[n+]2ccccc2)c1 the T/C (dose: 37.5 mg/kg/injection, schedule: Q04DX003 (ip), vehicle: saline with Tween-80) was 94 % of control and 100 % of control, the T/C [1] was 105 % of control and 90 % of control and the T/C [2] was 89 % of control.
With COC(=O)C1C2CCCN2OC1(C)CO (centres undefined) the T/C (dose: 30.0 mg/kg/injection, schedule: Q04DX003 (ip), vehicle: saline) was 103 % of control, the T/C (dose: 60.0 mg/kg/injection, schedule: Q04DX003 (ip), vehicle: saline) was 97 % of control and the T/C (dose: 62.5 mg/kg/injection, schedule: Q04DX003 (ip), vehicle: saline with Tween-80) was 111 % of control. For the same compound, the T/C (dose: 120.0 mg/kg/injection, schedule: Q04DX003 (ip), vehicle: saline) was 99 % of control, the T/C (dose: 240.0 mg/kg/injection, schedule: Q04DX003 (ip), vehicle: saline) was 89 % of control and the T/C (dose: 250.0 mg/kg/injection, schedule: Q04DX003 (ip), vehicle: saline with Tween-80) was 101 % of control. The T/C (dose: 500.0 mg/kg/injection, schedule: Q04DX003 (ip), vehicle: saline with Tween-80) was 100 % of control and the T/C (dose: 1000.0 mg/kg/injection, schedule: Q04DX003 (ip), vehicle: saline with Tween-80) was 98 % of control.
With COc1ccc(OC)c(Cc2cnc3nc(N)nc(N)c3c2C)c1 the T/C (dose: 7.5 mg/kg/injection, schedule: Q04DX003 (ip), vehicle: water) was 99 % of control, the T/C (dose: 15.0 mg/kg/injection, schedule: Q04DX003 (ip), vehicle: water) was 105 % of control and the T/C (dose: 30.0 mg/kg/injection, schedule: Q04DX003 (ip), vehicle: water) was 101 % of control. The T/C (dose: 37.5 mg/kg/injection, schedule: Q04DX003 (ip), vehicle: water) was 91 % of control, the T/C (dose: 60.0 mg/kg/injection, schedule: Q04DX003 (ip), vehicle: water) was 107 % of control and the T/C (dose: 75.0 mg/kg/injection, schedule: Q04DX003 (ip), vehicle: water) was 88 % of control.
COc1ccc2[nH]c3ccc4cc[n+](CCN5CCC(C6CCN(CC[n+]7ccc8ccc9[nH]c%10ccc(OC)cc%10c9c8c7)CC6)CC5)cc4c3c2c1 was tested, and the T/C (dose: 4.0 mg/kg/injection, schedule: Q04DX003 (ip), vehicle: water) was 153 % of control, the T/C (dose: 13.7 mg/kg/injection, schedule: Q04DX003 (ip), vehicle: water) was 156 % of control and the T/C (dose: 16.0 mg/kg/injection, schedule: Q04DX003 (ip), vehicle: water) was 176 % of control. For the same compound, the T/C (dose: 22.8 mg/kg/injection, schedule: Q04DX003 (ip), vehicle: water) was 176 % of control, the T/C (dose: 23.04 mg/kg/injection, schedule: Q04DX003 (ip), vehicle: water) was 203 % of control and the T/C (dose: 32.0 mg/kg/injection, schedule: Q04DX003 (ip), vehicle: water) was 187 % of control. The T/C (dose: 38.0 mg/kg/injection, schedule: Q04DX003 (ip), vehicle: water) was 207 % of control, the T/C (dose: 38.4 mg/kg/injection, schedule: Q04DX003 (ip), vehicle: water) was 223 % of control and the T/C (dose: 64.0 mg/kg/injection, schedule: Q04DX003 (ip), vehicle: water) was 192 % of control.
With O=C1C2=C(C(=O)c3cnccc31)C1C=CC2CC1 (centres undefined) the T/C (dose: 25.0 mg/kg/injection, schedule: Q04DX003 (ip), vehicle: DMSO) was 93 % of control.
With [CH3][Sn]([CH3])([Cl])[S]CCN the T/C [3] was 101 % of control, the T/C (dose: 12.5 mg/kg/injection, schedule: Q04DX003 (ip), vehicle: saline with Tween-80) was 109 % of control and the T/C (dose: 25.0 mg/kg/injection, schedule: Q04DX003 (ip), vehicle: saline with Tween-80) was 105 % of control. The T/C (dose: 50.0 mg/kg/injection, schedule: Q04DX003 (ip), vehicle: saline with Tween-80) was 115 % of control and the T/C [4] was 103 % of control.
In the case of O=S(=O)(c1cccc(N=C=S)c1)c1cccc(N=C=S)c1, the T/C (dose: 15.0 mg/kg/injection, schedule: Q04DX003 (ip), vehicle: Klucel (hydroxypropylcellulose) (HPC)) is reported as 91 % of control, the T/C [5] is reported as 95 % of control and the T/C (dose: 60.0 mg/kg/injection, schedule: Q04DX003 (ip), vehicle: Klucel (hydroxypropylcellulose) (HPC)) is reported as 107 % of control. For the same compound, the T/C [6] was 109 % of control.
For Cc1cc(O)c2c(c1O)C(=O)C13C(=C2O)C(=O)C2C(O)C1C1C(O)C3C(=O)C3=C(O)c4c(O)cc(C)c(O)c4C(=O)C321 (centres undefined), the T/C [3] was 114 % of control.
COc1ccc(O)cc1 was tested, and the T/C [4] was 124 % of control and the T/C (dose: 200.0 mg/kg/injection, schedule: Q04DX003 (ip), vehicle: saline with Tween-80) was 102 % of control.
COC(=O)c1ccc(N=NN(C)COC(C)=O)cc1 was tested, and the T/C [5] was 118 % of control, the T/C (dose: 51.8 mg/kg/injection, schedule: Q04DX003 (ip), vehicle: Klucel (hydroxypropylcellulose) (HPC)) was 175 % of control and the T/C (dose: 86.4 mg/kg/injection, schedule: Q04DX003 (ip), vehicle: Klucel (hydroxypropylcellulose) (HPC)) was 193 % of control. The T/C [6] was 193 % of control, the T/C (dose: 144.0 mg/kg/injection, schedule: Q04DX003 (ip), vehicle: Klucel (hydroxypropylcellulose) (HPC)) was 262 % of control and the T/C (dose: 240.0 mg/kg/injection, schedule: Q04DX003 (ip), vehicle: Klucel (hydroxypropylcellulose) (HPC)) was 220 % of control and 237 % of control.
CC(=O)C[n+]1ccccc1Sc1ccc(Cl)cc1 was tested, and the T/C (dose: 1.5 mg/kg/injection, schedule: Q04DX003 (ip), vehicle: saline with Tween-80) was 95 % of control, the T/C (dose: 3.0 mg/kg/injection, schedule: Q04DX003 (ip), vehicle: saline with Tween-80) was 94 % of control and the T/C (dose: 6.0 mg/kg/injection, schedule: Q04DX003 (ip), vehicle: saline with Tween-80) was 99 % of control. The T/C (dose: 12.0 mg/kg/injection, schedule: Q04DX003 (ip), vehicle: saline with Tween-80) was 96 % of control and the T/C (dose: 24.0 mg/kg/injection, schedule: Q04DX003 (ip), vehicle: saline with Tween-80) was 95 % of control.
For O=c1cc(-c2ccccc2)[nH]c2c1CCCC2, the T/C [1] was 115 % of control, the T/C (dose: 150.0 mg/kg/injection, schedule: Q04DX003 (ip), vehicle: saline with Tween-80) was 115 % of control and the T/C (dose: 259.0 mg/kg/injection, schedule: Q04DX003 (ip), vehicle: saline with Tween-80) was 106 % of control. For the same compound, the T/C [2] was 114 % of control, the T/C (dose: 432.0 mg/kg/injection, schedule: Q04DX003 (ip), vehicle: saline with Tween-80) was 100 % of control and the T/C (dose: 600.0 mg/kg/injection, schedule: Q04DX003 (ip), vehicle: saline with Tween-80) was 124 % of control. For the same compound, the T/C (dose: 720.0 mg/kg/injection, schedule: Q04DX003 (ip), vehicle: saline with Tween-80) was 114 % of control.
